Measurements published in ChEMBL document CHEMBL3091359, “Potent oxazolidinone antibacterials with heteroaromatic C-ring substructure” (ACS Med Chem Lett, 2013).
pIC50: −log10 of the molar value. Converted amounts (≈) assume the structure as drawn.

Key:
[1] = system: Staphylococcus aureus; assay: Antibacterial activity against methicillin-resistant Staphylococcus aureus SR3637 clinical isolate infected in iv dosed JCL/ICR systemic infection model assessed as mortality administered after 1 hr of infection measured for 7 days; type: functional
[2] = system: Staphylococcus aureus; assay: Antibacterial activity against Staphylococcus aureus SR20549 clinical isolate assessed as […] by CLSI broth microdilution method; type: functional
[3] = system: Enterococcus faecalis; assay: Antibacterial activity against Enterococcus faecalis SR1004 clinical isolate assessed as […] by CLSI broth microdilution method; type: functional
[4] = system: Staphylococcus aureus; assay: Ratio of linezolid MIC to compound MIC for Staphylococcus aureus Smith clinical isolate; type: functional
[5] = system: Streptococcus pneumoniae; assay: Antibacterial activity against penicillin-resistant Streptococcus pneumoniae SR11031 clinical isolate assessed as […] by CLSI broth microdilution method; type: functional
[6] = system: Enterococcus faecium; assay: Antibacterial activity against Enterococcus faecium SR7940 clinical isolate assessed as […] by CLSI broth microdilution method; type: functional
[7] = system: Streptococcus pneumoniae; assay: Antibacterial activity against Streptococcus pneumoniae SR26207 clinical isolate assessed as […] by CLSI broth microdilution method; type: functional
[8] = system: Staphylococcus aureus; assay: Ratio of linezolid MIC to compound MIC for Staphylococcus aureus SR20549 clinical isolate; type: functional
[9] = system: Staphylococcus aureus; assay: Antibacterial activity against methicillin-resistant Staphylococcus aureus SR3637 clinical isolate assessed as […] by CLSI broth microdilution method; type: functional
[10] = system: Staphylococcus aureus; assay: Antibacterial activity against Staphylococcus aureus Smith clinical isolate assessed as […] by CLSI broth microdilution method; type: functional
[11] = system: Moraxella catarrhalis; assay: Antibacterial activity against Moraxella catarrhalis SR26840 clinical isolate assessed as […] by CLSI broth microdilution method; type: functional
[12] = system: Staphylococcus aureus; assay: Antibacterial activity against linezolid-resistant Staphylococcus aureus NRS271 clinical isolate harboring G2576T mutation in peptidyl transferase center domain V of 23S rRNA gene assessed as […] by CLSI broth microdilution method; type: functional
[13] = system: Haemophilus influenzae; assay: Antibacterial activity against Haemophilus influenzae SR27914 clinical isolate assessed as […] by CLSI broth microdilution method; type: functional
[14] = system: Staphylococcus aureus; assay: Antibacterial activity against methicillin-resistant Staphylococcus aureus SR3637 clinical isolate infected in po dosed JCL/ICR systemic infection model assessed as mortality administered after 1 hr of infection measured for 7 days; type: functional
[15] = target: T1, Cytochrome P450 1A2 (Homo sapiens, UniProt P05177); assay: Inhibition of human CYP1A2 assessed as ethoxyresorufin O-deethylation after 20 mins by fluorescence plate reader; type: ADME
T1 sequence (P05177 whole entry): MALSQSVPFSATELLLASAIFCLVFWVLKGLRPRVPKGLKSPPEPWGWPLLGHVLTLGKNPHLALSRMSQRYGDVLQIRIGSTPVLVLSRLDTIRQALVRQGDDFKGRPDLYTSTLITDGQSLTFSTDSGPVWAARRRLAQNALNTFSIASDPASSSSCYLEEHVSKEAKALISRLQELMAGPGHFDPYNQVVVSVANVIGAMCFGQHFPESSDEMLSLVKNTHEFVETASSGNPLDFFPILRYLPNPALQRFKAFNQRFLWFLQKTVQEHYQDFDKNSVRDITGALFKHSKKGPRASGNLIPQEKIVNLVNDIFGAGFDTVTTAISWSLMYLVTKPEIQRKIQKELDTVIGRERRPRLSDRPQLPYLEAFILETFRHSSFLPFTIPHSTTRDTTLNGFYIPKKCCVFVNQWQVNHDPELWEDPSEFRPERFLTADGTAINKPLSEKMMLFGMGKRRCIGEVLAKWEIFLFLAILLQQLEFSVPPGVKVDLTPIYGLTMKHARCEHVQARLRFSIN

[16] = target: T2, MAO-A (Rattus norvegicus, UniProt P21396); assay: Inhibition of rat forebrain MAO-A using [14C]5-HT as substrate at 30 uM preincubated for 20 mins followed by substrate addition measured after 5 mins by liquid scintillation counting analysis; conditions: probe [14C]5-HT
T2 sequence (P21396 whole entry): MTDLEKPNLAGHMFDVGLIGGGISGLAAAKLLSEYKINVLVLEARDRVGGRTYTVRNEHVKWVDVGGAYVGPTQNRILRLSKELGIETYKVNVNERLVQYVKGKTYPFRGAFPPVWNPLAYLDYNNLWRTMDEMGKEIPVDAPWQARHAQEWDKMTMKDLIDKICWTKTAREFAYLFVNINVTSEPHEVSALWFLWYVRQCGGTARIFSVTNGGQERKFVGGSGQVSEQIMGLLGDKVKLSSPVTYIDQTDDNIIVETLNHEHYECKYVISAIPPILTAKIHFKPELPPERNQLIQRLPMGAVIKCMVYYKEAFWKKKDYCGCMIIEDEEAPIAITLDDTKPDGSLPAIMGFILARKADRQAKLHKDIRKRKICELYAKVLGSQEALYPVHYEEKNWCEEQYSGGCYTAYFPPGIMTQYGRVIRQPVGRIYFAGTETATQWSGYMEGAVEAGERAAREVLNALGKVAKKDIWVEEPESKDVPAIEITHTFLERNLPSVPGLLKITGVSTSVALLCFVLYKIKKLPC

[17] = target: Cytochrome P450 2D6 (Homo sapiens, UniProt P10635); assay: Inhibition of human CYP2D6 assessed as dextromethorphan O-demethylation after 20 mins by LC-MS/MS analysis; type: ADME
Sequence of Cytochrome P450 2D6 (P10635 whole entry): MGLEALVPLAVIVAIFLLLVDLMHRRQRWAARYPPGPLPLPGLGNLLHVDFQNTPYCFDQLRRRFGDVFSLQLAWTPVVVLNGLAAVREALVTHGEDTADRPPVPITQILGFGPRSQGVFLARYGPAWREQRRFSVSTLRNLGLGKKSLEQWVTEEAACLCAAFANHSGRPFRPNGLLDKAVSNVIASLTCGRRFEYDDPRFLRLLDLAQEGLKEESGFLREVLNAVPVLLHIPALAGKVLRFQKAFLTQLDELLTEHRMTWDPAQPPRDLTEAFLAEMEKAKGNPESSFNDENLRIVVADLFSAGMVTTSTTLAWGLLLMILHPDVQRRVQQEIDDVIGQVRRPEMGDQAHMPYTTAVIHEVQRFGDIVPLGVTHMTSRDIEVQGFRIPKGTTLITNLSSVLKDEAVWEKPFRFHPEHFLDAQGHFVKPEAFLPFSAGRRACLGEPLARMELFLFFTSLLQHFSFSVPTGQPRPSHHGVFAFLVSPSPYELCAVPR

[18] = target: Cytochrome P450 2C9 (Homo sapiens, UniProt P11712); assay: Inhibition of human CYP2C9 assessed as tolbutamide hydroxylation after 20 mins by LC-MS/MS analysis; type: ADME
Sequence of Cytochrome P450 2C9 (P11712 whole entry): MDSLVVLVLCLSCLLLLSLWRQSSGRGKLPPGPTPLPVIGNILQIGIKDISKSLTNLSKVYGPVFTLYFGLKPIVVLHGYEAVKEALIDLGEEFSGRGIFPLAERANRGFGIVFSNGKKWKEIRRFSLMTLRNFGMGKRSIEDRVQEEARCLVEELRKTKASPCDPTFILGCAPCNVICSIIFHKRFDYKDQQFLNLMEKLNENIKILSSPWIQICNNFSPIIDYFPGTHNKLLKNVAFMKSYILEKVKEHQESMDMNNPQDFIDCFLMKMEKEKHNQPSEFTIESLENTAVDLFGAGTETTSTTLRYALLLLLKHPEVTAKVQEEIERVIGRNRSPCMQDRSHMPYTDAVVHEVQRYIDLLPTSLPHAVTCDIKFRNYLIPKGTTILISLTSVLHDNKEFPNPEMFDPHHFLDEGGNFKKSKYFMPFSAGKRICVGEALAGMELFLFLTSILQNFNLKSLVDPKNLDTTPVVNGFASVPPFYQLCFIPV

[19] = target: Cytochrome P450 3A4 (Homo sapiens, UniProt P08684); assay: Inhibition of human CYP3A4 assessed as terfenadine hydroxylation after 20 mins by LC-MS/MS analysis; type: ADME
Sequence of Cytochrome P450 3A4 (P08684 whole entry): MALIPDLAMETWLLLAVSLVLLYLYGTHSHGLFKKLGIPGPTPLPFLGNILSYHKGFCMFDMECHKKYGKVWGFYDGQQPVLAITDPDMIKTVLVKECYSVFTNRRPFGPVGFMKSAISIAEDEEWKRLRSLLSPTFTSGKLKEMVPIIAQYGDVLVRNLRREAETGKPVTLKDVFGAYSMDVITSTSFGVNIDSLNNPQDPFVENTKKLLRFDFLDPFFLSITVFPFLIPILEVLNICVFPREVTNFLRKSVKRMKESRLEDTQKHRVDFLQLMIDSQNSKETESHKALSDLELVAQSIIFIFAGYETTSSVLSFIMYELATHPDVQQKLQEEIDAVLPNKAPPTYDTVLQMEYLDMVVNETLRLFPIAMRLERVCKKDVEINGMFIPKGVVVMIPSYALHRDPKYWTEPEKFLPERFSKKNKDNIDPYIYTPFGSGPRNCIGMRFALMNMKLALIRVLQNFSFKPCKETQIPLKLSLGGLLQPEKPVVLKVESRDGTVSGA

[20] = target: T3, MAO-B (Rattus norvegicus, UniProt P19643); assay: Inhibition of rat forebrain MAO-B using [14C]PEA as substrate at 30 uM preincubated for 20 mins followed by substrate addition measured after 10 mins by liquid scintillation counting analysis; conditions: probe [14C]PEA
T3 sequence (P19643 whole entry): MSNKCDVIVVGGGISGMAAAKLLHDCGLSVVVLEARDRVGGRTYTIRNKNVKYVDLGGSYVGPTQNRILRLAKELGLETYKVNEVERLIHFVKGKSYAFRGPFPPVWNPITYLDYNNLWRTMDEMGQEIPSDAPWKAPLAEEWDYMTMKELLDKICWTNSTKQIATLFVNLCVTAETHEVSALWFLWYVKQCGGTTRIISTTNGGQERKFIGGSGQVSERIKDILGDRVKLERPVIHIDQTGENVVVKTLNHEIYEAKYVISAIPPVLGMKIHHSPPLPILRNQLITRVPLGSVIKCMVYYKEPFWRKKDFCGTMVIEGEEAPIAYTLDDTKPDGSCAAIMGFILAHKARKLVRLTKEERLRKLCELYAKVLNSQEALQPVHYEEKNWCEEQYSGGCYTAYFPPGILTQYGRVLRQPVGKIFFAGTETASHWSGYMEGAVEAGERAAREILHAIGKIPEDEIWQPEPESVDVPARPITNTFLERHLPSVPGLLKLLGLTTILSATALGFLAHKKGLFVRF

| SMILES | ED50 [1] [mg/kg] | MIC [2] [µg/mL] | MIC [3] [µg/mL] | Ratio [4] | MIC [5] [µg/mL] | MIC [6] [µg/mL] | MIC [7] [µg/mL] | Ratio [8] | MIC [9] [µg/mL] | MIC [10] [µg/mL] | MIC [11] [µg/mL] | MIC [12] [µg/mL] | MIC [13] [µg/mL] | ED50 [14] [mg/kg] | pIC50 [15] | inhibition at 5 min, 30 µM [16] [%] | pIC50 [17] | pIC50 [18] | pIC50 [19] | inhibition at 10 min, 30 µM [20] [%] |
| --- | --- | --- | --- | --- | --- | --- | --- | --- | --- | --- | --- | --- | --- | --- | --- | --- | --- | --- | --- | --- |
| CC(=O)NC[C@H]1CN(c2ccc(-c3ccc4ccnn4c3)c(F)c2)C(=O)O1 | > 10 | 0.25 (≈ 0.679 µM) | 0.5 (≈ 1.36 µM) | 4 | ≤ 0.063 | 0.25 (≈ 0.679 µM) | ≤ 0.063 | 8 | 0.25 (≈ 0.679 µM) | 0.5 (≈ 1.36 µM) | 2 (≈ 5.43 µM) | 2 (≈ 5.43 µM) | 8 (≈ 21.7 µM) |  |  |  |  |  |  |  |
| CC(=O)NC[C@H]1CN(c2ccc(-c3ccc4cncn4c3)c(F)c2)C(=O)O1 | 3.05 | 0.25 (≈ 0.679 µM) | 0.5 (≈ 1.36 µM) | 2 | ≤ 0.063 | 0.5 (≈ 1.36 µM) | ≤ 0.063 | 2 | 0.5 (≈ 1.36 µM) | 1 (≈ 2.71 µM) | 4 (≈ 10.9 µM) | 4 (≈ 10.9 µM) | 8 (≈ 21.7 µM) |  |  |  |  |  |  |  |
| CC(=O)NC[C@H]1CN(c2ccc(-c3ccc4nccn4c3)c(F)c2)C(=O)O1 | 3.17 | 0.5 (≈ 1.36 µM) | 0.5 (≈ 1.36 µM) | 2 | ≤ 0.063 | 0.25 (≈ 0.679 µM) | ≤ 0.063 | 4 | 0.5 (≈ 1.36 µM) | 1 (≈ 2.71 µM) | 8 (≈ 21.7 µM) | 8 (≈ 21.7 µM) | 4 (≈ 10.9 µM) | 3.05 |  |  |  |  |  |  |
| CC(=O)NC[C@H]1CN(c2ccc(-c3ccn4ccnc4c3)c(F)c2)C(=O)O1 | 1.09 | 0.25 (≈ 0.679 µM) | 0.25 (≈ 0.679 µM) | 8 | ≤ 0.063 | 0.5 (≈ 1.36 µM) | ≤ 0.063 | 8 | 0.25 (≈ 0.679 µM) | 0.25 (≈ 0.679 µM) | 2 (≈ 5.43 µM) | 2 (≈ 5.43 µM) | 2 (≈ 5.43 µM) | 1.05 | < 4.70 | 54.8 | < 4.70 | < 4.70 | < 4.70 | 52.8 |
| CC(=O)NC[C@H]1CN(c2ccc(-c3ccc4ncnn4c3)c(F)c2)C(=O)O1 |  | 0.5 (≈ 1.35 µM) | 0.5 (≈ 1.35 µM) | 4 | ≤ 0.063 | 0.5 (≈ 1.35 µM) | ≤ 0.063 | 2 | 0.5 (≈ 1.35 µM) | 0.5 (≈ 1.35 µM) | 8 (≈ 21.7 µM) | 8 (≈ 21.7 µM) | 4 (≈ 10.8 µM) |  |  |  |  |  |  |  |
